Reference: patent US20250134860A1, “NOVEL COMPOUND, AND COMPOSITION FOR PREVENTING, ALLEVIATING OR TREATING BACTERIAL INFLAMMATION AND INFLAMMASOME-MEDIATED DISEASES, COMPRISING SAME AS ACTIVE INGREDIENT” (Quorum Bio Co., Ltd., priority 2022, published 2025)
“And” between values parts separate entries of the source, which are not always exact repeats. Equal values may be shown once. Each block holds one compound with its values, some of them ahead of it.

Tests used:
[1] = tested on: Sprague-Dawley rat bone marrow cells; assay: Rat micronucleus test; conditions: positive control 20 mg/kg/day P.O., 24 hours after dosing
Description: Hair was removed from the administration site (subcutaneous) of the SD rats, the administration concentration of the example compounds were set to a low dose (500 mg/kg/day), a medium dose (1000 mg/kg/day), and a high dose (2000 mg/kg/day), and administered subcutaneously to the left and right […] of the test system (10 ml/kg/day each), and the compound was administered subcutaneously in divided doses to the left and right […] of the test system (10 ml/kg/day each).
24 hours after the second administration of the test substance, the femur was removed from each group to collect bone marrow cells. 0.5 mL of 10% neutral formalin was added to the bone marrow cell suspension, fixed for 5 minutes, centrifuged for 5 minutes (4° C., 1,000 rpm, Micro17TR, Hanil Science Industrial, Republic of Korea) to remove the supernatant. Then, 0.3 mL of 10% neutral formalin was added to the precipitated bone marrow cells, suspended, filtered through a cell strain, and transferred to a storage tube. The fixed bone marrow cell suspension was dropped onto a cover glass, and then covered with a slide glass coated with 20 μL of 0.05% acridine orange to prepare an observation slide. The observation slide was observed under a microscope (600× magnification, BX51, Olympus, Japan).
As an indicator of bone marrow cell proliferation inhibition, 500 total red blood cells per individual were observed, and the ratio of polychromatic red blood cells to total red blood cells (PCE/(PCE+NCE)) was calculated. As a positive control, cyclophosphamide (Cas No: 50-18-0) was administered at a dose of 20 mg/kg/day.

[2] = General symptoms and body weight in the rat micronucleus study; type: in vivo; conditions: positive control 20 mg/kg/day P.O.
Description: In addition, body weight was measured on the day of administration start and bone marrow collection to confirm presence/absence of changes due to administration of the substance, and the results are shown in Table 4 below.

P. gingivalis = assay: Inhibitory effect on P. gingivalis biofilm formation (crystal violet, OD590nm); type: cell-based, Porphyromonas gingivalis; conditions: 48 hours; for biofilm formation of P. gingivalis increased by DPD: DPD 10 μM + compound 0.002, 0.02, 0.2, 2 μM, anaerobic, OD590nm
[3] = Plasma stability in human plasma (LC-MS/MS); type: in vitro ADME; conditions: 37° C., 0, 30, 60, 120, 240 minutes
Description: (§1) The compounds of Examples 1-2 and Comparative Example, and the substance used as the positive control (Eucatropine, Loterpresnol) were dissolved in DMSO to prepare a stock solution having a concentration of 10 mM. The stock solution of each test substance was then diluted to prepare 0.2 mM and 1 mM working solutions and used for the test (For the comparative example compound, 70% acetonitrile was used as a solvent, and for the compound of Example 1-2, 50% acetonitrile was used as a solvent).
(§2) The positive control and the standard solution of the test substance were placed in tubes containing two types of plasma (human and rat) at concentrations of 1 μM and 5 μM, respectively, and then incubated at 37° C. for a prescribed time (0, 30, 60, 120, 240 minutes) while shaking and mixing. At each time point, the mixture sample was dispensed in 100 μl increments into a cell culture plate (96-well plate) containing 400 μl of quench reagent to terminate the test, After centrifugation (5000×g, 10 min), 100 μl of the supernatant was taken out, mixed with 200 μl of ultrapure water, and the solution was then injected into a LC-MS/MS system to analyze the drug in each time zone. Thereby, the plasma stability of the compounds of Comparative Example and Example 1-2 was evaluated.

[4] = Plasma stability in rat plasma (LC-MS/MS); type: in vitro ADME; conditions: 37° C., 0, 30, 60, 120, 240 minutes
Description: as §1, §2

[5] = tested on: gingipain genes (rgpA, rgpB, kgp); assay: Inhibitory effect on gingipain expression of P. gingivalis (RT-qPCR); type: cell-based, Porphyromonas gingivalis; conditions: 48 hours
Description: The compounds of Examples were respectively treated onto the medium cultured with P. gingivalis, and the expression levels of three gingipain proteins (lysine-gingipain (Kgp), arginine-gingipain A (RgpA), and arginine-gingipain B (RgpB)) produced by P. gingivalis, which are major virulence factors and proteolytic enzymes, were confirmed.
The culture medium containing 10 μM of DPD (4,5-dihydroxy-2,3-pentane dione), which is a precursor of the bacterial signal substance (Autoinducer-2), and the culture medium containing 2 μM of the example compound or not were respectively dispensed into a cell culture plate (48 well plate), and then P. gingivalis (2×10^8 cell/ml) were inoculated for each group. The culture medium cultured with bacteria was cultured at 37° C. under anaerobic conditions (10% H2, 10% CO2, and 80% N2) for 48 hours.
After 48 hours, each culture medium was centrifuged at 13,000 rpm for 1 minute to remove the supernatant, and total RNA was extracted using easy-BLUE™ Total RNA Extraction kit (iNtRON Biotechnology, Sungnam, Korea) to synthesize cDNA, and then the expression of the gingipain gene was confirmed by real-time PCR method. cDNA was synthesized using AccuPower® CycleScript RT PreMix dN6 (Bioneer, Daejeon, Korea), and real-time (quantitative) reverse transcription PCR (RT-qPCR) was carried out using Power SYBR™ Green PCR Master Mix (Applied Biosystems, Foster City, CA, USA).
RT-qPCR amplification conditions were as follows: after enzyme activation at 95° C. for 3 minutes, denaturation at 95° C. for 10 seconds and primer annealing at 60° C. for 30 seconds were repeated 40 times, and analysis was performed using a Bio-Rad CFX Connect Real-Time PCR Detection System (Bio-Rad, Hercules, CA, USA). To normalize the expression level of the gingipain gene, the 16s rRNA gene was used, and the gene expression level was calculated using the Comparative Ct Method (ΔΔCt), which is shown in FIGS. 5a to 5c.

Compound: O=P1(N(CCCl)CCCl)NCCCO1 (stereo not shown) [CPA, cyclophosphamide]
- MNPCE/PCE, %(Mean) ([1]; group mean): 3.060%
- PCE/(PCE+NCE), %(Mean) ([1]; group mean): 33.5%
- PCE/(PCE+NCE): PCE count ([1]; individual animals, per 500 total red blood cells): 166 and 170
- MNPCE/PCE: MNPCE count ([1]; individual animals, per 4,000 PCE): 150 and 154 and 167 (2×)
- Body weight (g) 1 day after 2nd dosing, Mean ([2]; administered once, group mean): 278.9 g
- Body weight (g) 1 day after 2nd dosing ([2]; administered once, individual animals 1501-1505): 279.4 g and 281.5 g
- Body weight (g) before 1st dosing, Mean ([2]; group mean): 266.8 g
- Body weight (g) before 1st dosing ([2]; individual animals 1501-1505): 282.2 g

- amount of the compound remaining in the plasma [3]: decreased over time
- amount of the compound remaining in the plasma [4]: decreased over time
Compound: O=C1O/C(=C(\Br)c2ccccc2)c2ccccc21 [Comparative Example, (Z)-3-(bromo (phenyl)methylene) isobenzofuran-1 (3H)-one, reference compound]
- biofilm formation of P. gingivalis increased by DPD (P. gingivalis): inhibited in a concentration-dependent manner

Compound: CC(=O)C(=O)C(O)CO (stereo not shown) [DPD, 4,5-dihydroxy-2,3-pentanedione, reference compound]
- biofilm formation of P. gingivalis (P. gingivalis; DPD 10 μM alone compared to medium with PBS (CT)): significantly increased
- expression levels of three gingipain genes (rgpA, rgpB, kgp) ([5]; DPD 10 μM alone compared with untreated control): increased more than in the control group

Compound: CN1C(=O)c2ccccc2C1=C(c1ccccc1)c1ccccc1 [Example 1-1, 3-(diphenylmethylene)-2-methylisoindolin-1-one]
- biofilm formation of P. gingivalis increased by DPD (P. gingivalis): inhibited in a concentration-dependent manner
- expression levels of three gingipain genes (rgpA, rgpB, kgp) increased by DPD ([5]; DPD 10 μM + compound 2 μM, normalized to 16s rRNA): reduced

Compound: COc1ccc(C(=C2c3ccccc3C(=O)N2C)c2ccc(OC)cc2)cc1 [Example 1-3, 3-(bis(4-methoxyphenyl)methylene)-2-methylisoindolin-1-one]
- biofilm formation of P. gingivalis increased by DPD (P. gingivalis): inhibited in a concentration-dependent manner
